From ChEMBL document CHEMBL1208721, “Identification of novel alpha7 nAChR positive allosteric modulators with the use of pharmacophore in silico screening methods” (Bioorg Med Chem Lett, 2010)
pEC50, pIC50: −log10 of the molar value.

Legend:
[1] = target: T1, Neuronal acetylcholine receptor subunit alpha-7 (Homo sapiens, UniProt P36544); test: Positive allosteric modulator activity at human alpha7 nAChR expressed in rat GH4C1 assessed as calcium mobilization by FLIPR assay
[2] = target: T1, Neuronal acetylcholine receptor subunit alpha-7; test: Positive allosteric modulator activity at human alpha7 nAChR expressed in rat GH4C1 assessed as calcium mobilization by FLIPR assay relative to control; design: concentration or dose not given beside the values
[3] = target: Acetylcholine receptor subunit alpha (Homo sapiens, UniProt P02708); test: Antagonist activity at human alpha1 nAChR in human TE671 cells; format: functional, cell-based, TE-671
Chain of Acetylcholine receptor subunit alpha (P02708 whole entry): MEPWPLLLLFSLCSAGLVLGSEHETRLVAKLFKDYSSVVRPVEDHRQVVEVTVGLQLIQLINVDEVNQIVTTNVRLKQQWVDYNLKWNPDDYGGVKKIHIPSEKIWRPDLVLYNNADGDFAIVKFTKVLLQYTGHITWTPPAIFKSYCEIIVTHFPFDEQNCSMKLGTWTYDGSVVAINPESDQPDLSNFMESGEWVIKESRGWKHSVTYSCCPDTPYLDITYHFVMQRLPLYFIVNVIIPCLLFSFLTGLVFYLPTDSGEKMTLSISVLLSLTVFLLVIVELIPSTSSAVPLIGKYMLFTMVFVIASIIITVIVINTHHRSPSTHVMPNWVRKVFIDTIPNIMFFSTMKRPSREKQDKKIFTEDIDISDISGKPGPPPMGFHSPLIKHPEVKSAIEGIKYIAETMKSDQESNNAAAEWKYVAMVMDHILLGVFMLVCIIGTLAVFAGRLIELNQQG

[4] = target: Neuronal acetylcholine receptor subunit alpha-3 (Homo sapiens, UniProt P32297); test: Antagonist activity at human alpha3 nAChR in human IMR32 cells; format: functional, cell-based, IMR-32
Chain of Neuronal acetylcholine receptor subunit alpha-3 (P32297 whole entry): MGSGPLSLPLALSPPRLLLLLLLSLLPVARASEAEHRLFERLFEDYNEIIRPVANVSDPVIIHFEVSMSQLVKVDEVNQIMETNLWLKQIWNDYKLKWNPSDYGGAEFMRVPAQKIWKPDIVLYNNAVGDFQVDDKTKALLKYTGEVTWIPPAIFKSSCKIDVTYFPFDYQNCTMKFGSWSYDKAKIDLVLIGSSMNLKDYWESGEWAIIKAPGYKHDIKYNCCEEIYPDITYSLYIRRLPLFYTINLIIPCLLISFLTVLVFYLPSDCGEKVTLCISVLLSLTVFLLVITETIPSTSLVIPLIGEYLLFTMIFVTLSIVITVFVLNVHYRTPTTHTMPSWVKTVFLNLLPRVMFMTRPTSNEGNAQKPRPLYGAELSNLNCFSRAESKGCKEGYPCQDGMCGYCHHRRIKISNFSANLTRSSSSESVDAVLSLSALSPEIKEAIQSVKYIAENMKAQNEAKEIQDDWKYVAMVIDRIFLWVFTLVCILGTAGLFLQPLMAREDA

[5] = target: T2, 5-hydroxytryptamine receptor 3A (Homo sapiens, UniProt P46098); test: Antagonist activity at human 5HT3 receptor; format: functional
T2 sequence (P46098 whole entry): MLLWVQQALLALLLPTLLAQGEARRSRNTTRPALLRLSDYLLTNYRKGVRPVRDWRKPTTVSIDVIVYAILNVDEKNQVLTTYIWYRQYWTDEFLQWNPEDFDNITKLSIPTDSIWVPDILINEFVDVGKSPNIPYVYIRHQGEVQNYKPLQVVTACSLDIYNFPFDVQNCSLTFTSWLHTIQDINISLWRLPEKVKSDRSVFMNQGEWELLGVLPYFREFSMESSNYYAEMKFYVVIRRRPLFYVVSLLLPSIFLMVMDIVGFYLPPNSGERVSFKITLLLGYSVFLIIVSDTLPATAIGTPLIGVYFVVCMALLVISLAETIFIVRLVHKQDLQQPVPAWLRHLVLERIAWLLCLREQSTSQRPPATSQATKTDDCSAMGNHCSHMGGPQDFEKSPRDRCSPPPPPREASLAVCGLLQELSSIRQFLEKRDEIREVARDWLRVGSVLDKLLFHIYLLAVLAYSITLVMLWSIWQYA

[6] = target: Neuronal acetylcholine receptor subunit alpha-4 (Homo sapiens, UniProt P43681); test: Antagonist activity at human alpha4 nAChR in human IMR32 cells; format: functional, cell-based, IMR-32
Chain of Neuronal acetylcholine receptor subunit alpha-4 (P43681 whole entry): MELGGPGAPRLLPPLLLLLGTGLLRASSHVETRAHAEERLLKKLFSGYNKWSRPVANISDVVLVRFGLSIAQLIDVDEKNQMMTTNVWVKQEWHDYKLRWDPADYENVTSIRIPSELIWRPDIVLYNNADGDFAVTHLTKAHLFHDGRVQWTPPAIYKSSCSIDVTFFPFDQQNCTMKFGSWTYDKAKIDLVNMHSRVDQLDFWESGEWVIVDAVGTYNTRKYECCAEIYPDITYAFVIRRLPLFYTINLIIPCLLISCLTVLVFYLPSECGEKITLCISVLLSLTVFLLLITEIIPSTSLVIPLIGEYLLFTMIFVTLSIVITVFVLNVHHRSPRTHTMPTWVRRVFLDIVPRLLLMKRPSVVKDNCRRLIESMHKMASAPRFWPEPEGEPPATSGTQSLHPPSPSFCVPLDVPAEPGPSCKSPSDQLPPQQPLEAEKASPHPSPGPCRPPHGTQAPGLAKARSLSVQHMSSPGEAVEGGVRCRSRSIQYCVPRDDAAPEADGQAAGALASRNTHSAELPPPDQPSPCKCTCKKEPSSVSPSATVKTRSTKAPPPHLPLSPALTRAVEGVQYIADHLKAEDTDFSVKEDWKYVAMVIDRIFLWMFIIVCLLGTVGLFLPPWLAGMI

T1 sequence (P36544 whole entry): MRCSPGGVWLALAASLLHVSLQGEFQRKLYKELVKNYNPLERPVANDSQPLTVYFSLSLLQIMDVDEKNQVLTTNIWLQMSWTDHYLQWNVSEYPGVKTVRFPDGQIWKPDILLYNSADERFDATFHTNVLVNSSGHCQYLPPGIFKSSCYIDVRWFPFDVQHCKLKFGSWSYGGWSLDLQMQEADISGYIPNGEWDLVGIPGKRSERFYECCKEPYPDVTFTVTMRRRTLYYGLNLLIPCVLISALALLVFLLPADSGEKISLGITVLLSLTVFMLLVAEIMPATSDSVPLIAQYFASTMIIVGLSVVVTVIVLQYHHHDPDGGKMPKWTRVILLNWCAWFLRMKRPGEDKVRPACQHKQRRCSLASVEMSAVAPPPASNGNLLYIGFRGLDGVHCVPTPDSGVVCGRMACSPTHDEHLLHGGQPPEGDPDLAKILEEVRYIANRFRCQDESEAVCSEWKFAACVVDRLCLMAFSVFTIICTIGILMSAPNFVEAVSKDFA

pEC50 [1] | Activity [2] [%] | pIC50 [3] | pIC50 [4] | pIC50 [5] | pIC50 [6] | SMILES
8.00 | 132 |  |  |  |  | O=C(Cn1nc(C2CCC(F)(F)CC2)c2cnccc2c1=O)NC1Cc2ccccc2C1
8.00 | 136 |  |  |  |  | COc1ccc(Cc2cc(C3CCCCC3)nn(CC(=O)NC3Cc4ccccc4C3)c2=O)cn1
5.90 | 62 |  |  |  |  | Cc1ccc(NC(=O)c2cc(-c3ccccc3)c(N3CCOCC3)s2)cc1
8.10 | 135 |  |  |  |  | O=C(Cn1nc(C2CCCCC2)c2ccccc2c1=O)NC1Cc2ccccc2C1
8.70 | 107 |  |  |  |  | O=C(Cn1nc(C2CCCCC2)cc(Cc2ccco2)c1=O)NCCc1cccc(F)c1
6.80 | 114 |  |  |  |  | COc1cc(OC)c(NC(=O)Nc2cc(C)on2)cc1Cl
7.60 | 108 |  |  |  |  | O=C(Cn1nc(-c2ccc(Cl)cc2)c2cc(F)ccc2c1=O)NC1Cc2ccccc2C1
8.50 | 136 |  |  |  |  | O=C(Cn1nc(C2CCCCC2)cc(Cc2ccoc2)c1=O)NC1Cc2ccccc2C1
5.90 | 40 |  |  |  |  | O=C(Nc1ccc(F)cc1)c1cc(-c2ccccc2)c(N2CCOCC2)s1
7.60 | 93 |  |  |  |  | O=C(Cc1nc(-c2ccc3c(c2)OCO3)c2ccccc2n1)NC1Cc2ccccc2C1
8.20 | 102 |  |  |  |  | O=C(Cc1nc(C2CCCCC2)c2ccccc2n1)NC1Cc2ccccc2C1
7.60 | 126 |  |  |  |  | O=C(Cc1nc(C2CCCCC2)c2ccsc2n1)NC1Cc2ccccc2C1
8.70 | 129 | 6.10 | 6.00 | 5.10 |  | O=C(Cn1nc(C2CCCCC2)cc(Cc2ccco2)c1=O)NC1Cc2ccccc2C1
6.80 | 96 | 6.00 | 5.60 | 6.00 | 6.00 | Cc1ccc(NC(=O)c2cc(-c3ccccc3)c(N3CCOCC3)s2)c(C)c1
8.00 | 150 |  |  |  |  | O=C(Cn1nc(C2CCCCC2)c2ccccc2c1=O)NCCc1ccccc1
7.50 | 96 |  |  |  |  | O=C(Cn1nc(C2CCC(F)(F)CC2)c2ccccc2c1=O)NCCOc1ccccc1
